Data: publication PMC4522678, “Adaptation of the human aryl hydrocarbon receptor to sense microbiota-derived indoles” (Scientific Reports, 2015)

Tests used:
[1] = molecular target: T1, human aryl hydrocarbon receptor (AHR) (Homo sapiens, UniProt P35869); experiment: gel shift (EMSA) of in vitro translated AHR/ARNT; HepG2 reporter; type: cell-based; design: in vitro translated human AHR; with ARNT
Target sequence in this assay (P35869 11-848): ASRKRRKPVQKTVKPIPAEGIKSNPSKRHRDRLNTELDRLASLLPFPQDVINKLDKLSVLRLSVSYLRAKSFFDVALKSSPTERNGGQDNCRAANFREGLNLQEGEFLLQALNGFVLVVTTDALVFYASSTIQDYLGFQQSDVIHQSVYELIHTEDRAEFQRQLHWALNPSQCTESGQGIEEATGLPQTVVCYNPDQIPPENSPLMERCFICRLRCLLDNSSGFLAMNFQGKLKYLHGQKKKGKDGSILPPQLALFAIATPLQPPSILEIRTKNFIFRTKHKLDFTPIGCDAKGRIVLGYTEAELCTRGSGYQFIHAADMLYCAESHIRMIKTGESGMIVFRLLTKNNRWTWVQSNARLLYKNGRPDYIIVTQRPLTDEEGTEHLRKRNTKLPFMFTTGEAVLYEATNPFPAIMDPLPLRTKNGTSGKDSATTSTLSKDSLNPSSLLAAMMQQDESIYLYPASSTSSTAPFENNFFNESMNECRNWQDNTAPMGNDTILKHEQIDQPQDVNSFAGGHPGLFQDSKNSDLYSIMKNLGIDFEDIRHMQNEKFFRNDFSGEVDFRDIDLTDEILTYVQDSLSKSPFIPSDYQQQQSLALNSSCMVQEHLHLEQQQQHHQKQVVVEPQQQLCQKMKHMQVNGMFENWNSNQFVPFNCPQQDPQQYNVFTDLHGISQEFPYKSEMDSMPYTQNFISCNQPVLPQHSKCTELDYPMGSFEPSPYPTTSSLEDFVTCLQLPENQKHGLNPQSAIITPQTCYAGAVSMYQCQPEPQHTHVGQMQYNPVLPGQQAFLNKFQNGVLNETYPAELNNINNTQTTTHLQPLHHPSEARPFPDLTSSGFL
Target sequence in this assay (P27540 2-789 partner): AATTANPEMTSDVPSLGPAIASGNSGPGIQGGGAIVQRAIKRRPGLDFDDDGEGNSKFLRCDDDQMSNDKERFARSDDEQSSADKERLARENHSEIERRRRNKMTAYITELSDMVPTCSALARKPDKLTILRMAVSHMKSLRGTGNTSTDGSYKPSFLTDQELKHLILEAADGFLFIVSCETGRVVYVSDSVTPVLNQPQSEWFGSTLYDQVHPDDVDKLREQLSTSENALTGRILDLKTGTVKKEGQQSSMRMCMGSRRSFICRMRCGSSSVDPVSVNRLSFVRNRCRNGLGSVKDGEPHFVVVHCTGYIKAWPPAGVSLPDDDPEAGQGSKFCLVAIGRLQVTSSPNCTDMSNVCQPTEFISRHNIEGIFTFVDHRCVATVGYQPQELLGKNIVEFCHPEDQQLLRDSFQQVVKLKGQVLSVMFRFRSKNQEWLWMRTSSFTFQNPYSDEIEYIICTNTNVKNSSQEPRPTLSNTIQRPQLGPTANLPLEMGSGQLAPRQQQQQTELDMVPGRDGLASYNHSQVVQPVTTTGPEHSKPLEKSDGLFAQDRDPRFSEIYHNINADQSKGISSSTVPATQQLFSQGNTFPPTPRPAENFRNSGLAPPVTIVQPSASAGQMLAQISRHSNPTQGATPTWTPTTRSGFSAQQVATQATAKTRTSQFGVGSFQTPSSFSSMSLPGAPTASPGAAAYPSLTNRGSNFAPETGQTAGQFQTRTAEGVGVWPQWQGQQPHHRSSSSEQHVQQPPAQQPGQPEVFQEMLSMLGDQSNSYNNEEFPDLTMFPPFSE

chimpanzee AHR [2] = molecular target: T2, chimpanzee AHR (Pan troglodytes, UniProt K7AJA4); experiment: gel shift (EMSA) of in vitro translated AHR/ARNT, […] TCDD; type: cell-based
T2 construct: in vitro translated chimpanzee AHR; with ARNT
T2 sequence (K7AJA4 1-850): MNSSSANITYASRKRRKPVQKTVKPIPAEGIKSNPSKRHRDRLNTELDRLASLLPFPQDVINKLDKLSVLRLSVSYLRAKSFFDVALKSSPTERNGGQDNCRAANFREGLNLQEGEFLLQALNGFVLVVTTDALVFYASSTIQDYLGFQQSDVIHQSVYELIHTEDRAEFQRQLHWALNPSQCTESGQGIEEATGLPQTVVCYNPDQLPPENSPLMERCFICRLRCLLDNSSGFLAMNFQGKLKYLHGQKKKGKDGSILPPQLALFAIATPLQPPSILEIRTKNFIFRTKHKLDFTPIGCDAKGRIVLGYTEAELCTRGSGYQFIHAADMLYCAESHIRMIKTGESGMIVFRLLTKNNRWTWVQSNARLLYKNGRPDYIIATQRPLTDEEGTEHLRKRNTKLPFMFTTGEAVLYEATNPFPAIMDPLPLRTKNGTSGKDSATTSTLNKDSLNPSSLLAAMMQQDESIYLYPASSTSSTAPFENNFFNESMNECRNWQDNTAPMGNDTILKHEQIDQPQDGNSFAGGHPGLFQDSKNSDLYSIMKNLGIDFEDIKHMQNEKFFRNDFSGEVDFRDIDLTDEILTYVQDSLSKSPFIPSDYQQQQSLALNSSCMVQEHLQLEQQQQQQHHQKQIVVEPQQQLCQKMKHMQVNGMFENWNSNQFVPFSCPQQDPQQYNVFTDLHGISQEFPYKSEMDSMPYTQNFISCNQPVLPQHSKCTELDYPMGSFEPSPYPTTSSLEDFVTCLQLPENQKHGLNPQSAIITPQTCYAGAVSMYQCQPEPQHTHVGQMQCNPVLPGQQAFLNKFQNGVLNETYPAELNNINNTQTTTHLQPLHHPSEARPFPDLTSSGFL

chimpanzee AHR [3] = molecular target: T2, chimpanzee AHR; experiment: gel shift (EMSA) of in vitro translated AHR/ARNT, […] indole; type: cell-based
[4] = molecular target: T1, human aryl hydrocarbon receptor (AHR); experiment: competition with radioiodinated photoaffinity ligand in hAHR liver cytosol; also gel shift with in vitro translated hAHR/ARNT; design: human AHR transgene expressed in mouse liver (hepatic cytosol)
Target sequence in this assay (P35869 11-848): as the sequence (P35869 11-848) above

Cc1c[nH]c2ccccc12 [3-MI, 3-methyl indole]
gel shift (EMSA) of in vitro translated AHR/ARNT; HepG2 reporter [1]: 3-methyl indole, like indole was associated with enhanced binding of AHR/ARNT to its cognate response element

Clc1cc2c(cc1Cl)Oc1cc(Cl)c(Cl)cc1O2 [TCDD]
gel shift (EMSA) of in vitro translated AHR/ARNT, 10 nM TCDD (chimpanzee AHR [2]): revealed chimpanzee AHR to be sensitive to both TCDD and indole-mediated activation

c1ccc2[nH]ccc2c1 [indole]
gel shift (EMSA) of in vitro translated AHR/ARNT, 20 μM indole (chimpanzee AHR [3]): revealed chimpanzee AHR to be sensitive to both TCDD and indole-mediated activation | competition with radioiodinated photoaffinity ligand in hAHR liver cytosol; also [4]: dose-dependent decrease in PAL binding consistent with indole being a competitor and direct ligand for the human AHR
